Species on record: Rattus norvegicus
Assay: Open TG-GATES - Regimen: Daily Repeat
Assay type: toxicity, organism-based, Sprague-Dawley
Design: regimen Daily Repeat, gender Male, age 6 weeks
Conditions: in vivo, po, route gavage; for APTT / Bas / Eos / Fbg / Hb / Ht / Lym / MCHC / MCV / Mono / Neu / PT / Plat / RBC / Ret / WBC: tissue Blood; for KIDNEY_L / KIDNEY_R / KIDNEY_TOTAL: tissue Kidney; for LIVER: tissue Liver; for ALP / ALT / AST / CRE / DBIL / GLC / IP / K / LDH / Na / PL / RALB / TBIL / TC / TG / TP / gamma-GTP: tissue Plasma
[1] = 0 mg/kg, 72 h, dose level Control, time 3 day
[2] = 0 mg/kg, […], dose level Control, time 7 day
[3] = 0 mg/kg, […], dose level Control, time 14 day
[4] = 0 mg/kg, […], dose level Control, time 28 day
[5] = 100 mg/kg, 72 h, dose level Low, time 3 day
[6] = 100 mg/kg, […], dose level Low, time 7 day
[7] = 100 mg/kg, […], dose level Low, time 14 day
[8] = 100 mg/kg, […], dose level Low, time 28 day

Structure (SMILES): C#C[C@]1(O)CC[C@H]2[C@@H]3CCC4=Cc5oncc5C[C@]4(C)[C@H]3CC[C@@]21C [DANAZOL]
- TERMINAL_BW [1]: 236.4 g
- APTT [1]: 23.9 s
- Bas [1]: 0%
- Eos [1]: 0.8%
- Fbg [1]: 304.4 mg/dL
- Hb [1]: 13.4 g/dL
- Ht [1]: 40.8%
- Lym [1]: 77.4%
- MCHC [1]: 32.7%
- MCV [1]: 63.8 fL
- Mono [1]: 3%
- Neu [1]: 17.2%
- PT [1]: 15.5 s
- Plat [1]: 120.7 x10_4/uL
- RBC [1]: 639.8 x10_4/ul
- Ret [1]: 6.7%
- WBC [1]: 80.8 x10_2/uL
- KIDNEY_L [1]: 1 g
- KIDNEY_R [1]: 1 g
- KIDNEY_TOTAL [1]: 2 g
- LIVER [1]: 11.6 g
- ALP [1]: 1436.8 IU/L
- ALT [1]: 45.8 IU/L
- AST [1]: 72.4 IU/L
- CRE [1]: 0.2 mg/dL
- DBIL [1]: 0 mg/dL
- GLC [1]: 197.6 mg/dL
- IP [1]: 7.8 mg/dL
- K [1]: 4.2 meq/L
- LDH [1]: 190 IU/L
- Na [1]: 142.6 meq/L
- PL [1]: 140 mg/dL
- RALB [1]: 3.1 g/dL
- TBIL [1]: 0.008 mg/dL
- TC [1]: 72.2 mg/dL
- TG [1]: 95.6 mg/dL
- TP [1]: 5.5 g/dL
- gamma-GTP [1]: 1.6 IU/L
- TERMINAL_BW [2]: 266.9 g
- TERMINAL_BW [3]: 328.6 g
- TERMINAL_BW [4]: 402.2 g
- APTT [2]: 22.8 s
- Bas [2]: 0%
- Eos [2]: 1%
- Fbg [2]: 302.8 mg/dL
- Hb [2]: 13.8 g/dL
- Ht [2]: 40.8%
- Lym [2]: 76.8%
- MCHC [2]: 33.9%
- MCV [2]: 60.1 fL
- Mono [2]: 3%
- Neu [2]: 18.8%
- PT [2]: 15.2 s
- Plat [2]: 116.5 x10_4/uL
- RBC [2]: 678.8 x10_4/ul
- Ret [2]: 5.9%
- WBC [2]: 114.8 x10_2/uL
- APTT [3]: 24.6 s
- Bas [3]: 0%
- Eos [3]: 0.8%
- Fbg [3]: 325.6 mg/dL
- Hb [3]: 14.5 g/dL
- Ht [3]: 41.5%
- Lym [3]: 83%
- MCHC [3]: 34.9%
- MCV [3]: 60.6 fL
- Mono [3]: 2%
- Neu [3]: 13.4%
- PT [3]: 15.3 s
- Plat [3]: 124.1 x10_4/uL
- RBC [3]: 685.8 x10_4/ul
- Ret [3]: 3.8%
- WBC [3]: 122.1 x10_2/uL
- APTT [4]: 23.5 s
- Bas [4]: 0%
- Eos [4]: 1%
- Fbg [4]: 293 mg/dL
- Hb [4]: 14.6 g/dL
- Ht [4]: 42.9%
- Lym [4]: 82.8%
- MCHC [4]: 34.1%
- MCV [4]: 57.9 fL
- Mono [4]: 1.8%
- Neu [4]: 13.6%
- PT [4]: 15.9 s
- Plat [4]: 101.9 x10_4/uL
- RBC [4]: 740 x10_4/ul
- Ret [4]: 2.1%
- WBC [4]: 119.8 x10_2/uL
- KIDNEY_L [2]: 1.1 g
- KIDNEY_R [2]: 1.1 g
- KIDNEY_TOTAL [2]: 2.3 g
- KIDNEY_L [3]: 1.3 g
- KIDNEY_R [3]: 1.4 g
- KIDNEY_TOTAL [3]: 2.7 g
- KIDNEY_L [4]: 1.4 g
- KIDNEY_R [4]: 1.4 g
- KIDNEY_TOTAL [4]: 2.8 g
- LIVER [2]: 12 g
- LIVER [3]: 14.6 g
- LIVER [4]: 15.8 g
- ALP [2]: 1763.8 IU/L
- ALT [2]: 42 IU/L
- AST [2]: 69.6 IU/L
- CRE [2]: 0.2 mg/dL
- DBIL [2]: 0 mg/dL
- GLC [2]: 202.8 mg/dL
- IP [2]: 7.2 mg/dL
- K [2]: 4.4 meq/L
- LDH [2]: 184 IU/L
- Na [2]: 141.8 meq/L
- PL [2]: 157 mg/dL
- RALB [2]: 3 g/dL
- TBIL [2]: 0.004 mg/dL
- TC [2]: 80.4 mg/dL
- TG [2]: 106.8 mg/dL
- TP [2]: 5.5 g/dL
- gamma-GTP [2]: 1.6 IU/L
- ALP [3]: 1603.8 IU/L
- ALT [3]: 36.8 IU/L
- AST [3]: 65.6 IU/L
- CRE [3]: 0.2 mg/dL
- DBIL [3]: 0 mg/dL
- GLC [3]: 188.2 mg/dL
- IP [3]: 7.2 mg/dL
- K [3]: 4.2 meq/L
- LDH [3]: 186.6 IU/L
- Na [3]: 142.2 meq/L
- PL [3]: 158 mg/dL
- RALB [3]: 3.1 g/dL
- TBIL [3]: 0.004 mg/dL
- TC [3]: 74.4 mg/dL
- TG [3]: 139.8 mg/dL
- TP [3]: 5.8 g/dL
- gamma-GTP [3]: 3 IU/L
- ALP [4]: 1301.4 IU/L
- ALT [4]: 41.8 IU/L
- AST [4]: 63.8 IU/L
- CRE [4]: 0.2 mg/dL
- DBIL [4]: 0 mg/dL
- GLC [4]: 200.4 mg/dL
- IP [4]: 6.4 mg/dL
- K [4]: 4 meq/L
- LDH [4]: 141.6 IU/L
- Na [4]: 141.8 meq/L
- PL [4]: 144.2 mg/dL
- RALB [4]: 3 g/dL
- TBIL [4]: 0 mg/dL
- TC [4]: 71 mg/dL
- TG [4]: 118.2 mg/dL
- TP [4]: 5.9 g/dL
- gamma-GTP [4]: 3.4 IU/L
- TERMINAL_BW [5]: 235.6 g
- APTT [5]: 23.6 s
- Bas [5]: 0%
- Eos [5]: 1%
- Fbg [5]: 344.8 mg/dL
- Hb [5]: 13.5 g/dL
- Ht [5]: 41%
- Lym [5]: 77%
- MCHC [5]: 32.8%
- MCV [5]: 63 fL
- Mono [5]: 2.8%
- Neu [5]: 19%
- PT [5]: 16.3 s
- Plat [5]: 115.1 x10_4/uL
- RBC [5]: 651.2 x10_4/ul
- Ret [5]: 6.3%
- WBC [5]: 91.5 x10_2/uL
- KIDNEY_L [5]: 1 g
- KIDNEY_R [5]: 1 g
- KIDNEY_TOTAL [5]: 2.1 g
- LIVER [5]: 11.7 g
- ALP [5]: 1493.6 IU/L
- ALT [5]: 45.6 IU/L
- AST [5]: 72.4 IU/L
- CRE [5]: 0.2 mg/dL
- DBIL [5]: 0 mg/dL
- GLC [5]: 187.2 mg/dL
- IP [5]: 7 mg/dL
- K [5]: 4.3 meq/L
- LDH [5]: 168.2 IU/L
- Na [5]: 143 meq/L
- PL [5]: 131.2 mg/dL
- RALB [5]: 3.1 g/dL
- TBIL [5]: 0 mg/dL
- TC [5]: 55.2 mg/dL
- TG [5]: 161.4 mg/dL
- TP [5]: 5.7 g/dL
- gamma-GTP [5]: 1.8 IU/L
- TERMINAL_BW [6]: 261.4 g
- TERMINAL_BW [7]: 310 g
- TERMINAL_BW [8]: 405.6 g
- APTT [6]: 25 s
- Bas [6]: 0%
- Eos [6]: 0.4%
- Fbg [6]: 318 mg/dL
- Hb [6]: 13.7 g/dL
- Ht [6]: 40.4%
- Lym [6]: 84%
- MCHC [6]: 33.9%
- MCV [6]: 60.1 fL
- Mono [6]: 2%
- Neu [6]: 13%
- PT [6]: 15.7 s
- Plat [6]: 117.6 x10_4/uL
- RBC [6]: 672.6 x10_4/ul
- Ret [6]: 5.1%
- WBC [6]: 112.4 x10_2/uL
- APTT [7]: 26.6 s
- Bas [7]: 0%
- Eos [7]: 0.8%
- Fbg [7]: 354.4 mg/dL
- Hb [7]: 14.5 g/dL
- Ht [7]: 41.1%
- Lym [7]: 84.8%
- MCHC [7]: 35.2%
- MCV [7]: 60.3 fL
- Mono [7]: 1.8%
- Neu [7]: 12%
- PT [7]: 16.2 s
- Plat [7]: 134.9 x10_4/uL
- RBC [7]: 681.2 x10_4/ul
- Ret [7]: 3.3%
- APTT [8]: 26.9 s
- Bas [8]: 0%
- Eos [8]: 1%
- Fbg [8]: 326.6 mg/dL
- Hb [8]: 14.5 g/dL
- Ht [8]: 42.4%
- Lym [8]: 78.8%
- MCHC [8]: 34.2%
- MCV [8]: 56.1 fL
- Mono [8]: 1.6%
- Neu [8]: 17.6%
- PT [8]: 17.1 s
- Plat [8]: 109.1 x10_4/uL
- RBC [8]: 756.2 x10_4/ul
- Ret [8]: 2.4%
- WBC [8]: 85.7 x10_2/uL
- KIDNEY_L [6]: 1.1 g
- KIDNEY_R [6]: 1.1 g
- KIDNEY_TOTAL [6]: 2.2 g
- KIDNEY_L [7]: 1.3 g
- KIDNEY_R [7]: 1.3 g
- KIDNEY_TOTAL [7]: 2.6 g
- KIDNEY_L [8]: 1.5 g
- KIDNEY_R [8]: 1.5 g
- KIDNEY_TOTAL [8]: 2.9 g
- LIVER [6]: 12.7 g
- LIVER [7]: 14.9 g
- LIVER [8]: 18.3 g
- ALP [6]: 1505.8 IU/L
- ALT [6]: 39.6 IU/L
- AST [6]: 65 IU/L
- CRE [6]: 0.2 mg/dL
- DBIL [6]: 0 mg/dL
- GLC [6]: 181.8 mg/dL
- IP [6]: 6.2 mg/dL
- K [6]: 4.4 meq/L
- LDH [6]: 139.6 IU/L
- Na [6]: 143.2 meq/L
- PL [6]: 128.4 mg/dL
- RALB [6]: 3 g/dL
- TBIL [6]: 0.002 mg/dL
- TC [6]: 51.8 mg/dL
- TG [6]: 140.4 mg/dL
- TP [6]: 5.6 g/dL
- gamma-GTP [6]: 2.2 IU/L
- ALP [7]: 1681.6 IU/L
- ALT [7]: 38.4 IU/L
- AST [7]: 57.4 IU/L
- CRE [7]: 0.2 mg/dL
- DBIL [7]: 0 mg/dL
- GLC [7]: 182.8 mg/dL
- IP [7]: 6.8 mg/dL
- K [7]: 4.1 meq/L
- LDH [7]: 154 IU/L
- Na [7]: 143.6 meq/L
- PL [7]: 132.8 mg/dL
- RALB [7]: 3.1 g/dL
- TBIL [7]: 0 mg/dL
- TC [7]: 49 mg/dL
- TG [7]: 177.6 mg/dL
- TP [7]: 6 g/dL
- gamma-GTP [7]: 2.6 IU/L
- ALP [8]: 1348.8 IU/L
- ALT [8]: 39.8 IU/L
- AST [8]: 59.2 IU/L
- CRE [8]: 0.2 mg/dL
- DBIL [8]: 0 mg/dL
- GLC [8]: 191.4 mg/dL
- IP [8]: 6.1 mg/dL
- K [8]: 3.9 meq/L
- LDH [8]: 121.8 IU/L
- Na [8]: 142.8 meq/L
- PL [8]: 142.4 mg/dL
- RALB [8]: 3 g/dL
- TBIL [8]: 0 mg/dL
- TC [8]: 46.6 mg/dL
- TG [8]: 334.4 mg/dL
- TP [8]: 6.2 g/dL
- gamma-GTP [8]: 3.2 IU/L

From ChEMBL document CHEMBL3885861, “Open TG-GATES”
